Assay results taken from PubChem BioAssay (NCI).
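Five concentrations, 48 hours, 96-well plates. Here, GI50 denotes the concentration required for 50% inhibition of growth. At the TGI there is no net growth.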

What was measured:
Assay in all cases: inhibition of tumour cell growth, NCI panel, 48 h
RPMI-8226 leukemia = tested on: RPMI-8226 leukemia
HOP-62 NSCLC = tested on: HOP-62 NSCLC
HCT-116 colon = tested on: HCT-116 colon
OVCAR-4 ovarian = tested on: OVCAR-4 ovarian
OVCAR-5 ovarian = tested on: OVCAR-5 ovarian
EKVX NSCLC = tested on: EKVX NSCLC
T-47D breast = tested on: T-47D breast
MDA-MB-435 = tested on: MDA-MB-435
SF-295 CNS = tested on: SF-295 CNS
OVCAR-8 ovarian = tested on: OVCAR-8 ovarian

| Compound | GI50 (RPMI-8226 leukemia) [µM] | TGI (RPMI-8226 leukemia) [µM] | GI50 (HOP-62 NSCLC) [µM] | TGI (HOP-62 NSCLC) [µM] | GI50 (HCT-116 colon) [µM] | TGI (HCT-116 colon) [µM] | GI50 (OVCAR-4 ovarian) [µM] | TGI (OVCAR-4 ovarian) [µM] | GI50 (OVCAR-5 ovarian) [µM] | TGI (OVCAR-5 ovarian) [µM] | GI50 (EKVX NSCLC) [µM] | TGI (EKVX NSCLC) [µM] | GI50 (T-47D breast) [µM] | TGI (T-47D breast) [µM] | GI50 (MDA-MB-435) [µM] | TGI (MDA-MB-435) [µM] | GI50 (SF-295 CNS) [µM] | TGI (SF-295 CNS) [µM] | TGI (OVCAR-8 ovarian) [µM] | GI50 (OVCAR-8 ovarian) [µM] |
| --- | --- | --- | --- | --- | --- | --- | --- | --- | --- | --- | --- | --- | --- | --- | --- | --- | --- | --- | --- | --- |
| Nc1ccn(Cc2ccc(C34CC5CC(CC(C5)C3)C4)c(O)c2)c(=O)n1 | > 100 | > 100 | 22.5 | 76.4 | > 100 | > 100 | > 100 | > 100 | > 100 | > 100 | 93 | > 100 | > 100 | > 100 | > 100 | > 100 | 31.5 | > 100 |  |  |
| CN(C)/C=C/c1nnc([N+](=O)[O-])s1 |  |  |  | 51.5 |  | 26.2 |  |  |  |  |  |  |  | 38.9 |  | 14.2 |  | 39.4 | 53.3 |  |
| Cc1ccc(/C=C2\CN(C(=O)OC(C)(C)C)C/C(=C\c3ccc(C)cc3)C2=O)cc1 | 0.329 |  |  | > 100 | 0.058 | 13.7 | 3.04 | > 100 | 0.391 | > 100 |  | > 100 |  | > 100 |  |  | 0.0685 | > 100 | > 100 | 0.918 |
| CC1(C)SC2C(NC(=O)C(N)c3ccccc3)C(=O)N2C1C(=O)O (stereo not drawn) |  | > 100 |  | > 100 |  | > 100 |  |  |  | > 100 |  | > 100 |  | > 100 |  | > 100 |  | > 100 | > 100 |  |
| CC(=O)NC(CCCNCc1ccccc1)C(=O)NCc1ccccc1 (stereo not drawn) |  | > 100 |  | > 100 |  | > 100 |  | > 100 |  | > 100 |  | > 100 |  |  |  |  |  | > 100 | > 100 |  |
| COC(=O)[C@H](Cc1cn(C)cn1)NC(=O)[C@H](Cc1c[nH]c2ccccc12)NC(=O)Nc1cc(C(F)(F)F)cc(C(F)(F)F)c1 | > 10 | > 10 | > 10 | > 10 | > 10 | > 10 | > 10 | > 10 | > 10 | > 10 |  |  | > 10 | > 10 | > 10 | > 10 | > 10 | > 10 | > 10 | > 10 |
| N#C/C(=C1\OC(=O)C(c2ccc(Br)cc2)=C1O)c1ccc(Br)cc1 |  | 43.6 |  | 33.3 |  | 32.4 |  | 34.3 |  | 33.2 |  | 31.6 |  |  |  |  |  | 32.8 | 24.6 |  |
| COc1cccc(NC(=O)CC(=O)N2N=C(N(CCC#N)c3ccc(Cl)cc3)CC2c2ccccc2)c1 (stereo not drawn) |  | > 100 |  | > 100 |  | > 100 |  | > 100 |  | > 100 |  | > 100 |  |  |  |  |  | > 100 | > 100 |  |
| CCN1C(=O)N(CC)C2C1NN=c1s/c(=C\c3cccnc3)c(=O)n12 (stereo not drawn) | 0.41 | > 100 | 0.628 | > 100 | 0.478 | > 100 | 5.72 | > 100 | 1.97 | > 100 | 0.659 | > 100 |  |  | 0.154 | 0.527 | 0.353 | > 100 | > 100 | 0.823 |
| CCCCCCCCCCCCOC(=S)NCCCC |  | 34.2 |  | 73.4 |  | 35 |  | 99.7 |  | 51.4 |  | 47.8 |  |  |  |  |  | > 100 | 40.2 |  |
| c1cc(-c2cn3ccsc3n2)ccn1 |  | > 81.4 |  | > 100 |  | > 100 |  | > 100 |  | > 100 |  | 98.7 |  |  |  |  |  | > 100 | > 63.8 |  |
| CC1=NCCc2c1[nH]c1cc(O)ccc21 |  | > 100 |  | > 100 |  | > 100 |  | > 100 |  | > 100 |  | > 100 |  |  |  |  |  | > 100 | > 100 |  |
| N#CC(C(=O)/C(=N/NC(=O)c1ccccc1O)C(C#N)c1ccc(Cl)cc1)c1ccc(Cl)cc1 (stereo not drawn) |  | 53 |  | 38.7 |  | 40.2 |  | 33.9 |  | 34.3 |  | 36.9 |  |  |  |  |  | 29.9 | 26.3 |  |
| CC(=O)NNc1nc(C)c(C(=O)NNC(=O)C(=O)Nc2ccccc2C#N)s1 |  | > 100 |  | > 100 |  | > 100 |  | > 100 |  | > 100 |  | > 100 |  |  |  |  |  | > 100 | > 100 |  |
| Cc1ccc(C(=O)O/N=C2/CCC/C2=C\c2ccccc2)cc1 |  | > 100 |  | > 100 |  | > 100 |  | > 100 |  | > 100 |  | > 100 |  |  |  |  |  | > 100 | > 100 |  |
| CN(C(=O)C12C3C4C5C3C1(C(=O)O)C5C42)C(C)(C)C (stereo not drawn) |  | > 100 |  | > 100 |  | > 100 |  | > 100 |  | > 100 |  | > 100 |  |  |  |  |  | > 100 | > 100 |  |
| COc1nc(NC2OCC(OC(C)=O)C(OC(C)=O)C2OC(C)=O)c(N=CC=Nc2c(NC3OCC(OC(C)=O)C(OC(C)=O)C3OC(C)=O)nc(OC)n(C)c2=O)c(=O)n1C (stereo not drawn) |  | > 100 |  | > 100 |  | > 100 |  | > 100 |  | > 100 |  | > 100 |  |  |  |  |  | > 100 | > 100 |  |
| CCN(Cc1ccc(F)c(F)c1)c1ccc(CO)c(Cl)c1 | 2.44 | 28.9 | 1.71 | 17.4 | 0.0911 | 11.4 | 0.18 | 1.46 | 0.0592 | 0.306 |  |  | 0.0977 | 0.667 | 17.9 | 37.6 | 0.51 | 12.1 | 27.9 | 11.9 |
| CN1CCN(CCc2cccc(C(=O)c3cnn(-c4ccc(F)cc4)c3N)c2)CC1 | > 25 | > 25 | > 25 | > 25 | > 25 | > 25 | > 25 | > 25 | > 25 | > 25 |  |  | > 25 | > 25 | > 25 | > 25 | > 25 | > 25 | > 25 | > 25 |
| Nc1c(C(=O)Nc2cccc([N+](=O)[O-])c2)sc2nc3c(cc12)C(O)CCC3 (stereo not drawn) |  |  | 6.66 | > 100 | 4.09 | > 100 | > 36.2 | > 100 | > 100 | > 100 |  |  | 6.59 | > 100 | 0.403 | 2.78 | 4.35 | > 54 | > 100 | 10.8 |
